Results taken from patent US20240325319A1, “INHIBITORS OF AMYLOID BETA OLIGOMERIZATION AND THERAPEUTIC USES THEREOF” (Northwestern University, priority 2021, published 2024).
“Also recorded” adds a separate entry of the source.

How the values were obtained:
[1] = molecular target: cathepsin L (Homo sapiens, UniProt P07711); assay: Purified cathepsin L enzyme activity (Z-FR-AMC to 7-AMC); format: biochemical; conditions: 0.0003-150 μM NU-9
Procedure: (§1) FIG. 26. A) 0.0003-150 μM NU-9 was combined with purified cathepsin L enzyme in the presence of the cathepsin L substrate Z-FR-AMC. Cathepsin L enzyme activity was measured by the rate of 7-AMC production by fluorescence. Percent change in rate was quantified in the graph. […] B) Mature hippocampal neurons were treated with NU-9 for 30 minutes, then Magic Red was used to monitor intracellular cathepsin L activity. Cells were treated in 3 wells, and 9-22 images were analyzed per condition.
(§2) No effect of 0.0003-150 μM NU-9 was observed on the cathepsin L activity as measured by the production rate of 7-AMC from Z-FR-AMC by purified cathepsin L enzyme.

[2] = test system: 5×FAD mice; assay: Memory performance (novel object preference) in 5×FAD mice; format: in vivo
Procedure: FIG. 7. […] Preliminary results obtained in 11 month old mice treated with NU-9 for 4 weeks. Memory performance was evaluated before and after treatment with vehicle or NU-9.
In a preliminary experiment using a mouse model of Alzheimer's disease, NU-9 protected against memory loss. Twelve 5×FAD mice were bred on the slow-onset background. These animals received either vehicle control or NU-9 by gavage (20 mg/kg) daily for one month. In the control group, all animals failed the memory task, showing no preference for the novel object. […] (FIG. 7).

[3] = test system: AβOs; assay: Size of AβOs formed, molecular weight cutoff filters of 50 and 100 kDa; conditions: 50 and 100 kDa cutoff filters; conflicting results from different blots
Text: Another area of investigation this quarter was the effect of NU-9 on the formation of different sizes of AβOs. Evidence from animal models and human samples indicate that that some species of AβOs are more toxic than others, and specifically that higher molecular weight oligomers (>50 kDa) may include the most Aβ-relevant species^15-16. To investigate whether NU-9 reduced the formation of high-molecular weight AβOs, I carried out several experiments using molecular weight cutoff filters of 50 and 100 kDa. However, conflicting results were obtained from different blots. […] The use of sufficient bioreplicates and thorough mixing is important for these experiments. These experiments may be revisited in the future, or the question of the type of AβOs targeted could be addressed through proteomics.

[4] = molecular target: cathepsin B (Homo sapiens, UniProt P07858); assay: Purified cathepsin B enzyme activity (Z-RR-AMC to 7-AMC); format: biochemical; conditions: NU-9 0.0003-30 μM
Procedure: FIG. 28. A) 0.0003-30 μM NU-9 was combined with purified cathepsin B enzyme in the presence of the cathepsin B substrate Z-RR-AMC. Cathepsin B enzyme activity was measured by the rate of 7-AMC production by fluorescence. Percent change in rate with NU-9 was quantified in the graph. […] B) Mature hippocampal neurons were treated with NU-9 for 30 minutes, then Magic Red was used to monitor intracellular cathepsin L activity. Cells were treated in 3 wells.

[5] = test system: preformed AβOs; assay: Binding of preformed AβOs to hippocampal neurons; format: cell-based, rat
Procedure: FIG. 11. […] Hippocampal neurons were treated with 3 μM NU-9 or vehicle for 30 min, then with Aβ monomer or preformed AβOs for 24 h. […] Neurons were stained with NU4 (anti-AβO antibody) and puncta per process were quantified.
FIG. 15. Mature hippocampal neurons were pre-treated with vehicle or 3 μM NU-9 for 30 min, then vehicle, 200 nM, or 500 nM AβO for 30 min. Then cells were fixed and labelled using anti-MAP2 (green, dendrites), DAPI (blue, nucleus), and NU2 (red, AβOs).
FIG. 19. Mature hippocampal neurons were treated first with 3 μM 9 for 30 min, and then with A) 30 or B) 200 nM LC AβOs for 30 min. Then, cells were fixed and labelled with anti-MAP2, DAPI, and NU2 (AβOs). The graphs show quantification of puncta/μm dendrite (30 images analyzed/condition, *** indicates p<0.001, ** p<0.01, * p<0.05).
If NU-9 did have some effect on preformed AβOs, this would support the alternate hypothesis that NU-9 removes AβO binding targets such as NKAα3 or PRP^c from the neuronal membrane^8-10.

[6] = molecular target: T1, cathepsin B (Rattus norvegicus, UniProt P00787); assay: Cathepsin B activity in hippocampal neurons (cell-based, Magic Red); conditions: neurons treated with NU-9 30 minutes
T1 construct: endogenous in cells
T1 sequence (P00787 80-126 limits assumed): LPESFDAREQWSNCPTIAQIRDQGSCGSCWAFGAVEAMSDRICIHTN
T1 sequence (P00787 129-333 limits assumed): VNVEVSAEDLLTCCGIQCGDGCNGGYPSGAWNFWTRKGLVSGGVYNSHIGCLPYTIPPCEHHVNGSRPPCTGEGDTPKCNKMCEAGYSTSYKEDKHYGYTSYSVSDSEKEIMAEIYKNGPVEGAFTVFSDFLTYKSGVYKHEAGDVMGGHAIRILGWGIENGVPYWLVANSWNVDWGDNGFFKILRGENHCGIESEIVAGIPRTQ

[7] = test system: acidic lysosomes; assay: Lysotracker labelling of acidic compartments in hippocampal neurons; format: cell-based, rat; conditions: 3 μM NU-9, 30-minute treatment
Procedure: FIG. 24. Mature E18 hippocampal neurons were treated 3 μM NU-9, and subsequently labelled with lysotracker. A) total immunofluorescence (integrated density), B) mean intensity, C) average size of acidic compartments, D) number of acidic compartments.

[8] = test system: AβOs bound to neurons; assay: AβOs bound to dendrites of hippocampal neurons treated with Aβ42 monomer (immunofluorescence, NU2/NU4); format: cell-based, rat
[9] = test system: total Aβ species; assay: Total Aβ species in neuronal cultures (6E10 immunofluorescence); format: cell-based, rat; conditions: NU-9 3 μM, 30 min, then Aβ monomer 500 nM
Procedure: FIG. 12. […] Mature hippocampal neurons were treated with NU-9 (3 μM, 30 min), then with Aβ monomer (500 nM, 30 min). These were labelled with 6E10 (anti-total Aβ, green) and MAP2 (anti-dendrite). Total number of Aβ particles per images as well as fluorescence intensity of Aβ signal (IntDen) was quantified).
To follow up on this, we treated neurons with NU-9 (3 μM, 30 min) followed by Aβ monomer (500 nM, 30 min) and attempted to observe total Aβ species by dot blot. […] So, instead of using dot blot, we used immunofluorescence, labelling treated neurons for total Aβ species. Using this protocol, we were able to avoid interaction of the antibody with cell culture media, allowing for specific labelling.

[10] = molecular target: T2, intracellular cathepsin L activity (Rattus norvegicus, UniProt P07154); assay: Intracellular cathepsin L activity in hippocampal neurons (Magic Red); format: cell-based; conditions: hippocampal neurons treated with NU-9 30 minutes
T2 construct: endogenous in cells
T2 sequence (P07154 114-334): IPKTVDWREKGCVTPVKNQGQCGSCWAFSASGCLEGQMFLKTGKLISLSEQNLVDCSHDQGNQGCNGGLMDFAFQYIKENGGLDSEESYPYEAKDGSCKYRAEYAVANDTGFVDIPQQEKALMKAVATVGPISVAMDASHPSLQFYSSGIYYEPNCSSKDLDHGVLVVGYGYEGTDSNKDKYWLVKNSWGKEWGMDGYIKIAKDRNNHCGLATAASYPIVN
Procedure: as §1, §2

Chain of cathepsin L (P07711 114-333, species assumed): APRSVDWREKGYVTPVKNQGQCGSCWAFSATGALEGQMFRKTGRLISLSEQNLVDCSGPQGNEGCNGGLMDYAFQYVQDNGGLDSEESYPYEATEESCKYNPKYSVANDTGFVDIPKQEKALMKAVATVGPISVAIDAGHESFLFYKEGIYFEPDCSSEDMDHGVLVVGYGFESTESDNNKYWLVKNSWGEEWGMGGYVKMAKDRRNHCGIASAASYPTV

C[C@H](Oc1cc(C(F)(F)F)cc(C(F)(F)F)c1)C1CC(=O)CC(=O)C1 [NU-9, (S)-5-(1-(3,5-bis(trifluoromethyl)phenoxy)ethyl)cyclohexane-1,3-dione]
cathepsin L activity (production rate of 7-AMC from Z-FR-AMC) [1]: No effect | motor and exploratory behavior ([2]; 5×FAD mice treated with vehicle or NU-9 for 4 weeks): normal motor and exploratory behavior | protection against memory loss (preference for novel object) ([2]; 5×FAD mice, 11 month old, 20 mg/kg by gavage daily for one month, preliminary, 20 mg/kg): mitigated memory loss; also recorded: three of the four mice were protected from memory loss; also recorded: mitigates memory loss in older 5×FAD mice | change in AβO size species [3]: reduction in 50-100 kDa species was observed, alongside an increase in small species (<50 kDa); also recorded: reduction in most species was observed, except in small species (<50 kDa) | cathepsin B activity (cleavage of Z-RR-AMC to 7-AMC) [4]: Minimal effect | binding of AβOs to hippocampal neurons (puncta/μm dendrite) ([5]; 3 μM 30 min, then 30 or 200 nM LC AβOs 30 min): no effect on the binding of the AβOs to hippocampal neurons | binding of preformed AβOs to dendrites (puncta/μm) ([5]; 3 μM NU-9 30 min, then 200 or 500 nM AβO 30 min): has no effect on the binding of preformed AβOs; also recorded: no effect on binding to dendrites | binding of preformed AβOs to neurons (NU4 puncta per process) ([5]; 3 μM NU-9 30 min, then preformed AβOs 24 h): does not reduce binding in neurons treated with premade AβOs; also recorded: does not reduce binding of preformed AβOs to neurons | cathepsin B activity in hippocampal neurons [6]: not observed to alter cathepsin B activity | lysosome number, size, and acidity [7]: unchanged | effect of NU-9 on neuron-binding AβOs in the presence of lysosome inhibitor ([8]; 100 nM bafilomycin A 30 min, NU-9 3 μM 30 min, Aβ monomer 500 nM 30 min): unable to do so; also recorded: abolished in the presence of a lysosome acidification inhibitor | AβOs bound to dendrites when NU-9 is washed out prior to Aβ monomer ([8]; NU-9 pre-treatment, washout, then Aβ 500 nM, 30 min): leads to a reduction in AβOs bound to dendrites; also recorded: maintained even when NU-9 was washed out; also recorded: reduced the number of AβOs bound to dendrites; also recorded: remains effective even when it is washed out | total Aβ species (particles, IntDen) [9]: does not reduce total Aβ species observable in neuronal cultures | intracellular cathepsin L activity [10]: not observed to modulate intracellular cathepsin L activity
